Reference: patent US20090099240A1, “METHODS FOR TREATING ENERGY METABOLISM DISORDERS BY INHIBITING FATTY ACID AMIDE HYDROLASE ACTIVITY” (N.V. Organon, priority 2006, published 2009)

Experiments:
[1] = test system: APOE*3-Leiden transgenic (E3L) mice; assay: Plasma leptin ELISA in E3L mice; type: in vivo, mouse
From the text: (§1) E3L mice were fed a high cholesterol (1% w/w) diet (HC diet) for a period of four weeks. Animals were then matched based on their plasma cholesterol levels, and were divided into five groups, each of which was maintained on an HC diet.
Accordingly, we quantified plasma leptin levels after a four hour fasting period at treatment time points 0, 14, and 28 days using a mouse-specific leptin ELISA or (kit number MOB00 from R&D Systems, Minneapolis, Minn.) according to the guidelines and protocol specified by the manufacturer.

[2] = test system: APOE*3-Leiden transgenic (E3L) mice; assay: Body weight in E3L mice on high cholesterol diet; type: in vivo, mouse
From the text: (§2) We assessed the effect of inhibiting FAAH activity on body weight, body fat, triglyceride levels, cholesterol levels in APOE*3-Leiden transgenic (E3L) mice, an animal model of hyperlipidemia. […] See van Vlijmen et al. (1994), J. Clin Invest., 93:1403-1410. Indeed, upon high fat and cholesterol feeding, these mice develop various stages of atherosclerotic lesions depending on plasma total cholesterol levels and resembling those found in humans. See Groot et al. (1996), Arterioscler. Thromb. Vasc. Biol., 16:926-933; Versch ren et al. (2005), Arterioscler. Thromb. Vasc Biol., 25:161-167; and Lutgens et al. (1999), Circulation; 99(2):276-283). Thus, the E3L mouse is a suitable model for the investigation of the efficacy of anti-atherosclerotic drugs.
as §1

[3] = test system: cynomolgus monkeys; assay: Time course of plasma OEA levels after oral dosing in cynomolgus monkeys; type: in vivo, cynomolgus monkey; conditions: oral 50-1500 mg/kg
Method: Afterwards, a time course of plasma OEA levels was determined for each subject by obtaining a plasma sample at 0.5, 1, 2, 4, 8, 12, and 24 hours post-administration.

[4] = test system: APOE*3-Leiden transgenic (E3L) mice; assay: Total plasma cholesterol in E3L mice; type: in vivo, mouse
From the text: as §2, §1
(§3) Blood samples were collected at days 0, 14, and 28 of the treatment period. At the end of the treatment period, animals were sacrificed, and various tissues and organs were analyzed. Unless otherwise indicated, values are mean±standard deviation (SD).

[5] = test system: APOE*3-Leiden transgenic (E3L) mice; assay: Organ and tissue weights in E3L mice on high cholesterol diet
From the text: as §2, §1, §3

[6] = test system: APOE*3-Leiden transgenic (E3L) mice; assay: Total plasma triglyceride levels in E3L mice; type: in vivo, mouse
From the text: as §2, §1, §3

[7] = test system: APOE*3-Leiden transgenic (E3L) mice; assay: Food intake per animal per day in E3L mice; type: in vivo, mouse
From the text: as §2, §1

[8] = test system: APOE*3-Leiden transgenic (E3L) mice; assay: Plasma alanine aminotransferase (ALAT) activity in E3L mice; type: in vivo, mouse
Method: as §1
Levels of plasma alanine aminotransferase (ALAT) were determined on day 28 (table 7). Plasma ALAT is a measure of hepatic stress and increases in plasma ALAT levels are often associated with liver damage. […] Thus, a reduction in plasma ALAT levels is associated with improved liver function.

[9] = test system: APOE*3-Leiden transgenic (E3L) mice; assay: Plasma lipoprotein profiles (size fractionation of pooled plasma) in E3L mice; type: in vivo, mouse; conditions: day 28, FIG. 1
Method: as §1
Lipoprotein profiles were determined in pooled plasma from day 28, as described in Verschuren et al. (2005), Arterioscler. Thromb. Vasc Biol., 25:161-167. An equal amount of plasma per animal was used to prepare a plasma pool for each group. Plasma lipoproteins in each plasma pool were separated by size fractionation. Typically, VLDL, IDL/LDL and HDL lipoproteins are eluted in fractions 4-8, fractions 11-16 and fractions 17-20, respectively.

[10] = test system: APOE*3-Leiden transgenic (E3L) mice; assay: Oil Red O staining of liver sections (steatosis) in E3L mice; type: in vivo, mouse; conditions: compared to the control vehicle group
From the text: as §1
In order to examine cellular stress in the liver due to lipid storage (steatosis), we stained frozen liver tissue sections with Oil Red O a fat-soluble diazo dye used to stain for lipids. Digital photomicrographs of liver cross sections were taken for each individual animal (magnification: 20 fold). […]

[11] = test system: APOE*3-Leiden transgenic (E3L) mice; assay: Lipid content of liver (TLC) in E3L mice; type: in vivo, mouse
From the text: as §1
A reduction of Red Oil O staining in liver generally indicates reduced liver lipid content. We therefore quantified levels of lipids in livers from each animal, as described in Havekes et al. (1987), Biochem. J., 247:739-746; Delsing et al. (2005), J. Cardiovasc. Pharmacol., 45:53-60; and Post et al. (2004), ATVB, 24:768-774. Liver tissue homogenates were prepared. Lipids were extracted, dried under nitrogen, dissolved in chloroform, and spotted onto a channeled 20×20 cm silica gel thin layer chromatography (TLC) plate. Lipids were then separated, TLC plates were warmed up to visualize bands, and bands were quantified using an internal standard as reference.

[12] = test system: APOE*3-Leiden transgenic (E3L) mice; assay: Plasma ketone body (D-3-hydroxybutyrate) levels in E3L mice; type: in vivo, mouse
From the text: as §1
We quantified plasma D-3-hydroxybutyrate (b-HBA; ketone bodies) levels were quantified in plasma samples obtained after a 4-hour fasting period at time points t=0, t=2, and t=4 weeks using kits #2940 (b-HBA reagent set) and #2947 (b-HBA control set)) according to the guidelines and protocol specified by the manufacturer (Instruchemie, Delfzijl, The Netherlands).

[13] = test system: APOE*3-Leiden transgenic (E3L) mice; assay: Plasma adiponectin ELISA in E3L mice; type: in vivo, mouse
From the text: as §1
We determined plasma adiponectin levels after a four hour fasting period at 0, 14, 28 days, using a mouse-specific adiponectin/Acrp30 ELISA (kit number MRP300 from R&D Systems, Minneapolis, Minn.).

[14] = E3L mice, HC diet, end of four-week treatment, mean ± SD

SMILES: NC(=O)c1cccc(-c2cccc(OC(=O)NC3CCCCC3)c2)c1 [KDS-4103]
- Plasma Leptin Levels ([1]; day 0, four hour fasting): ^#3.9 ± 1.5 ng/ml
- Plasma Leptin Levels ([1]; day 14, four hour fasting): ^#4.5 ± 2.1 ng/ml
- Plasma Leptin Levels ([1]; day 28, four hour fasting): ^#5.1 ± 2.3 ng/ml
- plasma leptin levels, in words ([1]; relative to the oral vehicle control group): significantly decreased
- body weights, in words ([2]; last time point (4 weeks), within group): significantly reduced
- Body Weight ([2]; week 0): 21.8 ± 1.1 g
- Body Weight ([2]; week 0.5): 21.9 ± 1.0 g
- Body Weight ([2]; week 1): 21.9 ± 1.0 g
- Body Weight ([2]; week 1.5): *21.3 ± 0.9 g
- Body Weight ([2]; week 2): *21.4 ± 0.9 g
- Body Weight ([2]; week 2.5): *21.4 ± 0.9 g
- Body Weight ([2]; week 3): *21.3 ± 0.9 g
- Body Weight ([2]; week 3.5): 21.5 ± 0.9 g
- Body Weight ([2]; week 4): *21.5 ± 1.0 g
- time of peak plasma OEA levels ([3]; FIG. 2): four
- plasma OEA levels, in words ([3]; all time points after the peak (up to 24 hours)): remained elevated
- plasma OEA levels, in words ([3]; two hours after administration, FIG. 2): clearly elevated
- Total Plasma Cholesterol ([4]; day 0): 14.3 ± 3.2 mM
- Total Plasma Cholesterol ([4]; day 14): ^#19.1 ± 4.9 mM
- Total Plasma Cholesterol ([4]; day 28): ^#19.5 ± 4.1 mM
- total plasma cholesterol levels, in words ([4]; days 14 and 28, relative to respective control group): slightly and significantly increased
- Organ and Tissue Weights: Brain [5, 14]: ^#0.46 ± 0.02^ g
- Organ and Tissue Weights: Fat (gonadal fat) [5, 14]: *0.22 ± 0.04 g
- Organ and Tissue Weights: Heart [5, 14]: 0.14 ± 0.02 g
- Organ and Tissue Weights: Liver [5, 14]: 1.03 ± 0.14 g
- Organ and Tissue Weights: Lung [5, 14]: 0.18 ± 0.01 g
- brain weight, in words ([5]; end of treatment): slight, but significant increase
- heart, liver, or lung weights, in words ([5]; end of treatment): No significant changes
- gonadal fat weight, in words ([5]; relative to the oral vehicle group): significantly lower
- Total Plasma Triglyceride Levels ([6]; day 0): 1.5 ± 0.4 mM
- Total Plasma Triglyceride Levels ([6]; day 14): 1.9 ± 0.6 mM
- Total Plasma Triglyceride Levels ([6]; day 28): 1.9 ± 0.5 mM
- total plasma triglyceride levels, in words ([6]; relative to respective control group): not significantly changed
- Food Intake Per Animal Per Day ([7]; interval 0-0.5 weeks): 2.3 ± 0.1 g
- Food Intake Per Animal Per Day ([7]; interval 0.5-1.0 weeks): 2.4 ± 0.1 g
- Food Intake Per Animal Per Day ([7]; interval 1.0-1.5 weeks): 2.3 ± 0.2 g
- Food Intake Per Animal Per Day ([7]; interval 1.5-2.0 weeks): 2.6 ± 0.1 g
- Food Intake Per Animal Per Day ([7]; interval 2.0-2.5 weeks): 2.3 ± 0.3 g
- Food Intake Per Animal Per Day ([7]; interval 2.5-3.0 weeks): 2.5 ± 0.1 g
- Food Intake Per Animal Per Day ([7]; interval 3.0-3.5 weeks): 2.4 ± 0.3 g
- Food Intake Per Animal Per Day ([7]; interval 3.5-4.0 weeks): *2.0 ± 0.1 g
- Food Intake Per Animal Per Day ([7]; interval run-in): 2.5 ± 0.5 g
- food intake, in words ([7]; last time point): slight, but significant, decrease
- Plasma Alanine Amino Transferase Activity ([8]; day 28): *94.0 ± 22.1 U/L
- plasma ALAT levels, in words ([8]; day 28, compared to respective control group): significantly decreased
- IDL/LDL particle size, in words [9]: slight shift toward larger IDL/LDL particles
- VLDL fraction of plasma lipoprotein profile, in words [9]: increase
- steatotic (Oil Red O) staining in liver, in words [10]: small, but not significant decrease
- liver triglycerides (TG), in words ([11]; compared to respective control group): significantly decreased
- liver cholesterol esters (CE), in words ([11]; compared to the oral vehicle group): significantly increased
- Lipid Content of Liver: Cholesterol Esters ([11]; end of four-week treatment): ^#59 ± 6
- Lipid Content of Liver: Free Cholesterol ([11]; end of four-week treatment): 22 ± 2
- Lipid Content of Liver: Triglycerides ([11]; end of four-week treatment): *64 ± 14
- plasma HB levels, in words ([12]; at 28 days, compared to the oral vehicle control group): significantly lower
- Plasma Ketone Body (HB) levels ([12]; day 0, 4-hour fasting): 0.73 ± 0.24 mM
- Plasma Ketone Body (HB) levels ([12]; day 14, 4-hour fasting): 0.32 ± 0.11 mM
- Plasma Ketone Body (HB) levels ([12]; day 28, 4-hour fasting): ^#0.43 ± 0.11^ mM
- Plasma Adiponectin Levels ([13]; day 0, four hour fasting): 10.4 ± 1.9 µg/mL
- Plasma Adiponectin Levels ([13]; day 14, four hour fasting): 10.2 ± 2.7 µg/mL
- Plasma Adiponectin Levels ([13]; day 28, four hour fasting): ^#11.9 ± 1.9^ mg/ml
- plasma adiponectin level, in words ([13]; day 28 as compared to day 0): significantly higher
